Experimental data taken from patent publication US9951064B2, “Azaindazole compounds as inhibitors of T790M containing EGFR mutants” (Genentech, Inc., priority 2013, dated 2018).

What was measured:
EGFR T790M L858R = molecular target: T1, EGFR T790M L858R (Homo sapiens, UniProt P00533, L858R/T790M); assay: EGFR T790M L858R biochemical assay (Caliper mobility shift); details: 5 μM ATP; apparent Ki (Morrison fit) converted by Cheng-Prusoff, Km of ATP 1.3 μM
T1 construct: purchased Life Technologies PV4879
Method in brief: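 Reactions run 30 minutes at room temperature (22 °C), stopped with 80 mM EDTA. Phosphorylated product and substrate separated electrophoretically and quantified by Caliper mobility shift.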

[1] = tested on: H1975 (EGFR T790M/L858R) cell proliferation; assay: H1975 proliferation assay (Cell Titer-Glo); format: cell-based; details: Homo sapiens, NCI-H1975, 72 h, NCI-H1975 cells, 72 hour incubation, read-out: H1975 antiproliferative EC50
Method: H1975 Proliferation Assays
All cell culture reagents were purchased from Invitrogen/Gibco. Cells are cultured at 37° C. at 5% CO2 and split as recommended by ATCC.

EGFR del746-750 T790M = molecular target: T2, EGFR del746-750 T790M (Homo sapiens, UniProt P00533, DEL746-750/T790M); assay: EGFR del746-750 T790M biochemical assay (Caliper mobility shift); details: 5 μM ATP; apparent Ki (Morrison fit) converted by Cheng-Prusoff, Km of ATP 2.1 μM; read-out: EGFR(T790M/d746-750) Ki
T2 construct: purchased Carna Biosciences 08-528
Method in brief: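 Kinase reactions ran 30 min at room temperature (22 °C), then were stopped with 80 mM EDTA. Phosphorylated product and substrate were separated electrophoretically and quantified by Caliper mobility shift.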

[2] = molecular target: T3, phosphor-EGFR in H1975(L585R/T790M) mutant EGFR expressing cells (Homo sapiens, UniProt P00533, L858R/T790M); assay: H1975 pEGFR MSD cellular assay; format: cell-based; details: NCI-H1975 cells, serum starved, 1 hour compound incubation, pEGFR Tyr1068 MSD; read-out: HI975 pEGFR EC50
T3 construct: host or cells: NCI-H1975
Method in brief: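 NCI-H1975 cells, 30,000/well, serum-starved overnight, then treated 1 hour at 37° C with serially diluted compounds in serum-free medium (0.5% DMSO). Lysates captured on anti-phospho-EGFR plates overnight at 4° C, detected with SULFO-TAG anti-total EGFR by electrochemiluminescence. Inhibition vs untreated controls; EC50 from 4-parameter logistic fit.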

T2 sequence (P00533 with tags, fused parts or gaps DEL746-750/T790M limits assumed): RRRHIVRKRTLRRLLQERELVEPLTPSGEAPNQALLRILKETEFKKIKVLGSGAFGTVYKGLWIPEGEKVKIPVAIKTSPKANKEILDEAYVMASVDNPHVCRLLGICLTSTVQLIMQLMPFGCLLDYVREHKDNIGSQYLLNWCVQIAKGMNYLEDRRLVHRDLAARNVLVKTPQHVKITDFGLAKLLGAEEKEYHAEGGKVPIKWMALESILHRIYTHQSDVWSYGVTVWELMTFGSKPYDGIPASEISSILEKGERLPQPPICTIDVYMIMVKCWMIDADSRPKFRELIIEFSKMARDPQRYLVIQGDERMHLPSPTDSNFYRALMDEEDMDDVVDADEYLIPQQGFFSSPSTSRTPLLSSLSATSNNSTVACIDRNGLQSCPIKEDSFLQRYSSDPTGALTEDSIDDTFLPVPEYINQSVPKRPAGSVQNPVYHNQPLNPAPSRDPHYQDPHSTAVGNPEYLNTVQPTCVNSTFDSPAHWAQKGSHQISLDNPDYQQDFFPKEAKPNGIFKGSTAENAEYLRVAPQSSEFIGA
T3 sequence (P00533 25-1210 T790M/L858R): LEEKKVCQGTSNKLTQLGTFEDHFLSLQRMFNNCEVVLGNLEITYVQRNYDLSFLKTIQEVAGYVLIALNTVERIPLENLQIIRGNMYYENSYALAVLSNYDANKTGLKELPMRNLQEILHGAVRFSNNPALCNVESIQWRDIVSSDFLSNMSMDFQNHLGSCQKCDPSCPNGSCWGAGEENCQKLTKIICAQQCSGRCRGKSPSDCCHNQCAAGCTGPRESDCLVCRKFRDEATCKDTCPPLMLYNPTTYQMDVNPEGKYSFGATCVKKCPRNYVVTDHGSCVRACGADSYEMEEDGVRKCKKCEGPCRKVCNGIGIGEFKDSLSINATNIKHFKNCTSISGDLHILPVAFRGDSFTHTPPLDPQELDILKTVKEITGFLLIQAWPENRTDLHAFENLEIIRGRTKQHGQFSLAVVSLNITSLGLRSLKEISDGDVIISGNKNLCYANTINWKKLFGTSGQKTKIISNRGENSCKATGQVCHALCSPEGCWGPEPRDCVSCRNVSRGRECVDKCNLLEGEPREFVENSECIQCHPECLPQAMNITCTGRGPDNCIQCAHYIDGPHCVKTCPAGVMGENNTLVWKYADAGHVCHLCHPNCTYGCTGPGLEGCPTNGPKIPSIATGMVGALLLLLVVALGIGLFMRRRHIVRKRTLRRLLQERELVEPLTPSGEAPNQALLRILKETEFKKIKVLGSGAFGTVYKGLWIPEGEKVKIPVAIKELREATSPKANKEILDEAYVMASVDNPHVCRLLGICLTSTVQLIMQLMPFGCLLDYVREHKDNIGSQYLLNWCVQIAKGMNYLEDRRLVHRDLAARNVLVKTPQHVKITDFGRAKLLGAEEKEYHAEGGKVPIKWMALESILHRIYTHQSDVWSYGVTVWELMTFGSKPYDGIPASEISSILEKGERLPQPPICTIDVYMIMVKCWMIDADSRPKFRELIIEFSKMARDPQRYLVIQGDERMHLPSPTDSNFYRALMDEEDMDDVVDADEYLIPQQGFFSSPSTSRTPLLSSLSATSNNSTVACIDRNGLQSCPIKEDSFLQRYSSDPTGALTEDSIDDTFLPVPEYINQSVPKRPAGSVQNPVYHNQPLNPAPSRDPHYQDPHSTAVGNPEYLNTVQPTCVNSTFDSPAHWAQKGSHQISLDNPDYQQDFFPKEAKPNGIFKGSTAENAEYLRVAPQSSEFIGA
T1 sequence (P00533 25-1210 T790M/L858R): as above

Row | SMILES | Ki (EGFR T790M L858R) | EC50 [1] | Ki (EGFR del746-750 T790M) | EC50 [2]
1 | CC(C)n1nc(NCC(F)(F)F)c2cnc(Nc3ccnc(-c4cnn(S(=O)(=O)C5CC5)c4)n3)cc21 [Example 181, N^6-(2-(1-(cyclopropylsulfonyl)-1H-pyrazol-4-yl)pyrimidin-4-yl)-1-isopropyl-N^3-(2,2,2-trifluoroethyl)-1H-pyrazolo[4,3-c]pyridine-3,6-diamine] | 8.2 nM | > 10000 nM | 10.8 nM | 3260 nM
2 | CCC(C)n1nc(N2CCNC2=O)c2cnc(Nc3ccnc(N4CC[C@H](O)[C@H](F)C4)n3)cc21 (stereo partly drawn) [Example 195, 1-(1-(sec-Butyl)-6-((2-((3R,4S)-3-fluoro-4-hydroxypiperidin-1-yl)pyrimidin-4-yl)amino)-1H-pyrazolo[4,3-c]pyridin-3-yl)imidazolidin-2-one] | 1 nM | 208 nM | 3.1 nM | 44.9 nM
3 | CCC(C)n1nc(N2CC[C@@H](O)C2)c2cnc(Nc3ccnc(N4CC[C@H](O)[C@H](F)C4)n3)cc21 (stereo partly drawn) [Example 196, (3R,4S)-1-(4-((1-(sec-Butyl)-3-((R)-3-hydroxypyrrolidin-1-yl)-1H-pyrazolo[4,3-c]pyridin-6-yl)amino)pyrimidin-2-yl)-3-fluoropiperidin-4-ol] | 0.9 nM | 263 nM | 1.1 nM | 12.5 nM
4 | CCC(C)n1nc(N2CCCC2=O)c2cnc(Nc3ccnc(N4CC[C@@H](O)[C@@H](F)C4)n3)cc21 (stereo partly drawn) [Example 200, 1-(1-(sec-Butyl)-6-((2-((3S,4R)-3-fluoro-4-hydroxypiperidin-1-yl)pyrimidin-4-yl)amino)-1H-pyrazolo[4,3-c]pyridin-3-yl)pyrrolidin-2-one] | 1.2 nM | 300 nM | 2.6 nM | 75.4 nM
5 | CCC(C)n1nc(N2CC3(COC3)C2)c2cnc(Nc3ccnc(N4CCC(C)(O)CC4)n3)cc21 (stereo not drawn) [Example 202, 1-(4-((1-(sec-Butyl)-3-(2-oxa-6-azaspiro[3.3]heptan-6-yl)-1H-pyrazolo[4,3-c]pyridin-6-yl)amino)pyrimidin-2-yl)-4-methylpiperidin-4-ol] | 2.8 nM | 881 nM | 4.8 nM | 141 nM
6 | CCC(C)n1nc(N2CC[C@@H](O)C2)c2cnc(Nc3ccnc(N4CCC(C)(O)CC4)n3)cc21 (stereo partly drawn) [Example 203, 1-(4-((1-(sec-Butyl)-3-((R)-3-hydroxypyrrolidin-1-yl)-1H-pyrazolo[4,3-c]pyridin-6-yl)amino)pyrimidin-2-yl)-4-methylpiperidin-4-ol] | 1.5 nM | 619 nM | 2.1 nM | 77 nM
7 | CCC(C)n1nc(N2CCCC2=O)c2cnc(Nc3ccnc(N4CCC(C)(O)CC4)n3)cc21 (stereo not drawn) [Example 204, 1-(1-(sec-Butyl)-6-((2-(4-hydroxy-4-methylpiperidin-1-yl)pyrimidin-4-yl)amino)-1H-pyrazolo[4,3-c]pyridin-3-yl)pyrrolidin-2-one] | 2.2 nM | 569 nM | 4.5 nM | 224 nM
8 | CC(C)n1nc(N2CC[C@@H](O)C2)c2cnc(Nc3ccnc(N4CCC(C)(O)CC4)n3)cc21 [Example 205, (R)-1-(4-((3-(3-Hydroxypyrrolidin-1-yl)-1-isopropyl-1H-pyrazolo[4,3-c]pyridin-6-yl)amino)pyrimidin-2-yl)-4-methylpiperidin-4-ol] | 2.7 nM | 831 nM | 9 nM | 287 nM
9 | CCC(C)n1nc(N2CC[C@@H](O)C2)c2cnc(Nc3ccnc(N4CCC(S(C)(=O)=O)CC4)n3)cc21 (stereo partly drawn) [Example 206, (3R)-1-(1-(sec-Butyl)-6-((2-(4-(methylsulfonyl)piperidin-1-yl)pyrimidin-4-yl)amino)-1H-pyrazolo[4,3-c]pyridin-3-yl)pyrrolidin-3-ol] | 1.9 nM | 1110 nM | 8.9 nM | 298 nM
